Measured values from ChEMBL document CHEMBL2086306, “Manadosterols A and B, sulfonated sterol dimers inhibiting the Ubc13-Uev1A interaction, isolated from the marine sponge Lissodendryx fibrosa” (J Nat Prod, 2012).

Assays:
[1] = molecular target: Ubiquitin-conjugating enzyme E2 N/Ubiquitin-conjugating enzyme E2 variant 1 (Homo sapiens) (UniProt Q13404+P61088); experiment: Ratio of leucettamol A IC50 to compound IC50 for recombinant human Ubc13-Uev1A interaction expressed in Escherichia BL21
[2] = molecular target: Ubiquitin-conjugating enzyme E2 N/Ubiquitin-conjugating enzyme E2 variant 1 (Homo sapiens, UniProt P61088+Q13404); experiment: Inhibition of recombinant human Ubc13-Uev1A interaction expressed in Escherichia BL21 after 1.5 hrs by ELISA

| Ratio IC50 [1] | IC50 [2] [nM] | Structure (SMILES) |
| --- | --- | --- |
| 1000 | 90 | CC1=CC(C)(C)[C@@H](/C=C\[C@@H](C)[C@H]2CC[C@H]3[C@@H]4C[C@H](OS(=O)(=O)O)[C@H]5C[C@H](O)[C@@H](OS(=O)(=O)O)C[C@]5(C)[C@H]4CC[C@]23C)[C@H]1CC[C@@H](C)[C@H]1CC[C@H]2[C@@H]3C[C@H](OS(=O)(=O)O)[C@H]4C[C@H](OS(=O)(=O)O)[C@@H](OS(=O)(=O)O)C[C@]4(C)[C@H]3CC[C@]12C [MANADOSTEROL A] |
|  | 130 | C=C1CC(C)(C)[C@@H](/C=C/[C@@H](C)[C@H]2CC[C@H]3[C@@H]4C[C@H](OS(=O)(=O)O)[C@H]5C[C@@H](O)CC[C@]5(C)[C@H]4CC[C@]23C)[C@H]1CC(O)[C@@H](C)[C@H]1CC[C@H]2[C@@H]3C[C@H](OS(=O)(=O)O)[C@H]4C[C@H](OS(=O)(=O)O)[C@@H](OS(=O)(=O)O)C[C@]4(C)[C@H]3CC[C@]12C (stereo partly drawn) [MANADOSTEROL B] |
